Values after ≈ are worked out from the molar mass of the structure shown. Where two headings read alike, the source gives them in different places.
Tests used:
CB2 receptor [1] = molecular target: T1, CB2 receptor (Rattus norvegicus, UniProt Q9QZN9); assay: Binding of [3H]WIN55,212-2 to membranes of RBL-2H3+ cells; details: cell membranes, 300 pM ligand, 90' at 30° C.; read-out: Ki CB2 receptor RBL-2H3 + cells Lig. [3H]WIN55, 212-2
T1 construct: endogenous in cells; host or cells: rat RBL-2H3+ leukemic basophilic cells
T1 sequence (Q9QZN9 1-360): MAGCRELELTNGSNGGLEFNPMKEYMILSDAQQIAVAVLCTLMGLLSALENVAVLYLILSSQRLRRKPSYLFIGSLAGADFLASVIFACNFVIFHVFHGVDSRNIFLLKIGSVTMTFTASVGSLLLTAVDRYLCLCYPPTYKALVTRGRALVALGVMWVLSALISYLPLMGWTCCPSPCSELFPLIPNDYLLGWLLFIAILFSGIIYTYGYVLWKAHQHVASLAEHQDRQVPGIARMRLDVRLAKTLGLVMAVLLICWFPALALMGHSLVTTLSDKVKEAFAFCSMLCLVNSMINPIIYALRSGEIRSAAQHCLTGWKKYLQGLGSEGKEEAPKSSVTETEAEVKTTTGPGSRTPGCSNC
Description: (§1) Effect of alkanolamide molecules on the binding of the synthetic ligands of the CB2 and CB1 cannabinoid receptors, respectively.
(§2) Rat RBL-2H3+ leukemic basophilic cells, which selectively express the cannabinoid CB2 receptor, and mouse N18TG2 neuroblastoma cells which selectively express the CB1 cannabinoid receptor were used. The cells were cultivated as described above (Facci L. et al. (1995) Proc. Natl: Acad: Sci. U.S.A. 92:: 3376-3380; Bisogno T. et al. 1997 J. Biol. Chem., 272: 3315-3323). WIN 55,212.2 was used as the selectively agonist synthetic ligand for the CB2 receptor.
HU-210 was used as the selective […] for the CB2 receptor.
(§3) [^3H]SR141716A (55 Ci/mmol) was supplied by Amersham; [^3H]WIN55,212-2 (43 Ci/mmol) was supplied by NEN. The binding tests were performed with membranes of the cells resuspended in 50 mMol Tris pH 7.0 buffer; 2.5 mMol MgCl2, 0.8 mMol EDTA; 0.05% bovine serum albumin (BSA); 0.01% ethanol, in the presence of 100 μM of phenyl-methyl-sulphonyl fluoride (PMSF-Sigma), with the use, of 300 pM of [^3H]SR141716A and of [^3H]WIN55,212-2, respectively, as the ligand.
(§4) The membranes were incubated for 90′ at 30° C. and filtered on glass microfibre filters (GFC-Whatman) and the radioactivity was detected by liquid scintillation. The specific binding was calculated with the use of either 10 μM SR141716A or 10 μM HU-210.
(§5) The Ki values were calculated by Chang-Prusoff's equation and expressed as concentration μM.

CB1 receptor = molecular target: T2, CB1 receptor (Mus musculus, UniProt P47746); assay: Binding of [3H]SR141716A to membranes of N18TG2 cells; details: cell membranes, 300 pM ligand, 90' at 30° C.; read-out: Ki CB1 Receptor N18TG2 cells Lig. [3H]SR141716A
T2 construct: endogenous in cells; host or cells: mouse N18TG2 neuroblastoma cells
T2 sequence (P47746 whole entry): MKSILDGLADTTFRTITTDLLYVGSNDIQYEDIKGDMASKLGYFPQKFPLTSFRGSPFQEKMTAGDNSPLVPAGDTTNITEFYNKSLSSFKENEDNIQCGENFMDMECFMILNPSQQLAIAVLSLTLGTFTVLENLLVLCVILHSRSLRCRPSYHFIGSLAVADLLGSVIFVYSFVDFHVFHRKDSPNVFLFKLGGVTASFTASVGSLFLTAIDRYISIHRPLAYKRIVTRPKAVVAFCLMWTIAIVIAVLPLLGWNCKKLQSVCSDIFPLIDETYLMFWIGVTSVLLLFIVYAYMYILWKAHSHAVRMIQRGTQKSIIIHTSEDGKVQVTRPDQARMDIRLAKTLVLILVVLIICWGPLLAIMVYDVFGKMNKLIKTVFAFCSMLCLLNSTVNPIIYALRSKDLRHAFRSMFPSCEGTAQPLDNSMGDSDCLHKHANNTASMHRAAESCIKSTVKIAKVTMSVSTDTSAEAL
Description: as §1, §2
SR141716A was used as the selective antagonist for the CB1 receptor.
as §3, §4, §5

physchem = details: organic solvent or mixture
[2] = Solubility in water and in organic solvents (chemical and physical characteristics); details: for solubility in water: in words
CB2 receptor [3] = molecular target: T1, CB2 receptor; assay: Stimulation of cyclic AMP (cAMP) by forskolin in RBL-2H3+ cells; assay type: cell-based; details: 1 μM forskolin
Experimental: Effect of alkanolamide molecules on the stimulation of cyclic AMP (cAMP) by forskolin.
The tests were performed with the aim of checking whether the binding of the molecules of the present invention to the CB2 receptor has functional significance.
It is in fact known that the function activation of the CB2 receptor brings about, at intracellular level, inhibition of the enzymatic activity of adenylate cyclase and a reduction in the levels of the second-messenger cAMP, resulting in an increase in the conductance of the channels to potassium and an inhibition of proteic phosphorylation (Childers S. R. et al. Biochem. Parmacol. 1996, 52: 819-827).
The dosages of cAMP were performed on RBL-2H3+ cells flowing together in Petri dishes with six wells (Falcon); the cells were stimulated for 10′ at 37° C. with 1 μM of forskolin (Fluka) in 400 μl of medium without serum, containing 20 mM HEPES, 0.1 mg/ml BSA and 0.1 mM 1-methyl-3-isobutyl xanthine (Sigma) and either ethanol or alkanolamide molecules with or without the addition of HU-210. After incubation, the cells were extracted and the levels of cAMP were evaluated with a suitable Amersham kit in accordance with the producer's method. The data were expressed in IC50 μM.

[4] = Lipid/water partition parameter RM from thin-film chromatography on silica gel; assay type: physicochemical; details: for ΔRM solvent 1 / RM solvent 1 / RF solvent 1: Solvent 1: 100% ethyl acetate; for ΔRM solvent 1 / ΔRM solvent 2: RM of derivative minus RM of corresponding alkanolamide; for RM solvent 1 / RM solvent 2: RM=log (1/Rf−1); for RF solvent 1 / RF solvent 2: silica gel; for ΔRM solvent 2 / RM solvent 2 / RF solvent 2: Solvent 2: heptane:isopropanol:ethyl acetate:H2O 40:20:50:2
Experimental: The chemical and physical characteristics of the derivatives according to the invention were evaluated by quantitative measurement of the lipid/water partition parameter.
A useful parameter for evaluating the properties of a compound in relation to its possible absorption is in fact constituted by the coefficient of partition between the lipid phase and the aqueous phase, which is considered to be an expression of its lipophilicity and its degree of hydrophilicity. […] For the purpose of evaluating the characteristics of the derivatives of the invention, the partition parameter RM between the lipid and the aqueous phase, extrapolated from thin-film partition chromatography, was calculated; this parameter is commonly used to evaluate the lipophilic characteristics of compounds (Tomlinson E. J. Chromatogr. 1975, 113, 1) and is commonly used, for example, for local anaesthetics, in which a correlation has been shown between this parameter and biological activity (Bachrata M. et al. J. Chromatogr. 1979, 171, 29-36).
The partition parameter RM between the lipid phase and the aqueous phase was calculated both for the derivatives and for the non-substituted alkanolamides, from the Rf value obtained by thin-film chromatography on silica gel (particles of […], mean porosity 60 Å, thickness 0.25 mm on glass plate) in accordance with the formula: RM=log (1/Rf−1) and the ΔRM was obtained from the difference between the RM coefficients of the derivative and of the corresponding alkanolamide.

[5] = 10' at 37° C., read-out: IC50 on forskolin-stimulated cAMP
[6] = + HU-210 (0.5 μM), read-out: IC50 on forskolin-stimulated cAMP with HU-210

| Compound | Ki (CB2 receptor [1]) [nM] | Ki (CB1 receptor) [nM] | solubility (physchem; ethanol) [µg/mL] | solubility (physchem; n-octanol) [µg/mL] | solubility in water [2] | IC50 (CB2 receptor [3]; [5]) [nM] | IC50 (CB2 receptor [3]; [6]) [nM] | ΔRM solvent 1 [4] | RM solvent 1 [4] | RF solvent 1 [4] | ΔRM solvent 2 [4] | RM solvent 2 [4] | RF solvent 2 [4] | solubility in organic solvents: ethanol ([2]; ethanol) |
| --- | --- | --- | --- | --- | --- | --- | --- | --- | --- | --- | --- | --- | --- | --- |
| CCCCCCCCCCCCCCCC(=O)NCCOC(=O)NCC(=O)OCC [Example 6, N-[2-[(ethoxycarbonylmethyl)aminocarbonyl]oxyethyl] hexadecanamide] | 1 ± 0.8 | > 15000 | 10000 (≈ 23.3 mM) | 10000 (≈ 23.3 mM) | slightly soluble | 1900 | > 20000 | −0.612 | 0.176 | 0.40 | −0.175 | −0.140 | 0.58 | – |
| N,N^1-bis[2-(ethoxycarbonyl)oxyethyl] nonandiamide [Example 4] | 2 ± 0.9 | > 15000 | – | – | slightly soluble | 1800 | > 20000 | −0.866 | −0.477 | 0.75 | −0.723 | −0.035 | 0.52 | 10 mg/ml in ethanol, |

From patent US6864285B1, “Covalent derivatives of alkanolamides of monocarboxylic and dicarboxylic acids functionally active on the CB2 cannabinoid receptor” (Innovet Italia S.r.l., priority 1999, dated 2005)
